This note sets out measurements from patent US8334315B2, “Substituted aromatic carboxamide and urea derivatives as vanilloid receptor ligands” (Gruenenthal GmbH, priority 2009, dated 2012).

Structures are written as SMILES.

The experiment has as its target T1, hVR1 (Homo sapiens, UniProt Q8NER1).
T1 construct: expressed in transfected cells; host or cells: CHO K1 cells (ECACC), stably transfected
Kind of experiment: Functional test on VR1, FLIPR Ca2+ influx in transfected CHO K1 cells, capsaicin. The experiment is classed as cell-based, human being. The settings on record: for Ki: capsaicin (Cap), includes values given in brackets after pAG, read-out: Ki (human being) [nM] Cap. More on the design: key to Ki (human being) [nM] Cap: agonist / partial agonist / no effect: AG=agonist; pAG=partial agonist; NE=no effect. The text has this:
In the process, the Ca^2+ influx is quantified in the FLIPR assay with the aid of a Ca^2+-sensitive dye (type Fluo-4, Molecular Probes Europe BV, Leiden, the Netherlands) in a fluorescent imaging plate reader (FLIPR, Molecular Devices, Sunnyvale, USA), as described hereinafter.
II. Functional Tests Carried Out on the Vanilloid Receptor (VR1)
The agonistic or antagonistic effect of the substances to be tested on the vanilloid receptor 1 (VR1) can also be determined using the following assay. In this assay, the influx of Ca^2+ through the channel is quantified with the aid of a Ca^2+-sensitive dye (type Fluo-4, Molecular Probes Europe BV, Leiden, the Netherlands) in a fluorescent imaging plate reader (FLIPR, Molecular Devices, Sunnyvale, USA).
Chinese hamster ovary cells (CHO K1 cells, European Collection of Cell Cultures (ECACC) United Kingdom) are stably transfected with the VR1 gene. For functional testing, these cells are plated out on poly-D-lysine-coated black 96-well plates having a clear base (BD Biosciences, Heidelberg, Germany) at a density of 25,000 cells/well. The cells are incubated overnight at 37° C. and 5% CO2 in a culture medium (Ham's F12 nutrient mixture, 10% by volume of FCS (foetal calf serum), 18 μg/ml of L-proline). The next day the cells are incubated with Fluo-4 (Fluo-4 2 μM, 0.01% by volume of Pluronic F127, Molecular Probes in HBSS (Hank's buffered saline solution), Gibco Invitrogen GmbH, Karlsruhe, Germany) for 30 minutes at 37° C. Subsequently, the plates are washed three times with HBSS buffer and after further incubation for 15 minutes at RT used for Ca^2+ measurement in a FLIPR assay. The Ca^2+-dependent fluorescence is measured before and after the addition of the substances to be tested (λex wavelength=488 nm, λem=540 nm). Quantification is carried out by measuring the highest fluorescence intensity (FC, fluorescence counts) over time.
The FLIPR protocol consists of 2 substance additions. First the compounds to be tested (10 μM) are pipetted onto the cells and the Ca^2+ influx is compared with the control (capsaicin 10 μM) (% activation based on the Ca^2+ signal after the addition of 10 μM of capsaicin). After 5 minutes' incubation, 100 nM of capsaicin are applied and the Ca^2+ influx is also determined.
Desensitising agonists and antagonists led to suppression of the Ca^2+ influx. The % inhibition is calculated compared to the maximum achievable inhibition with 10 μM of capsaicin.
Starting from the percentage displacement caused by different concentrations of the compounds to be tested of general formula I, IC50 inhibitory concentrations which cause a 50-per cent displacement of capsaicin were calculated. Ki values for the test substances were obtained by conversion by means of the Cheng-Prusoff equation (Cheng, Prusoff; Biochem. Pharmacol. 22, 3099-3108, 1973).
The affinity of the compounds according to the invention for the vanilloid receptor 1 (VR1/TRPV1 receptor) was determined as described hereinbefore (pharmacological methods I and II respectively).

T1 sequence (Q8NER1 whole entry): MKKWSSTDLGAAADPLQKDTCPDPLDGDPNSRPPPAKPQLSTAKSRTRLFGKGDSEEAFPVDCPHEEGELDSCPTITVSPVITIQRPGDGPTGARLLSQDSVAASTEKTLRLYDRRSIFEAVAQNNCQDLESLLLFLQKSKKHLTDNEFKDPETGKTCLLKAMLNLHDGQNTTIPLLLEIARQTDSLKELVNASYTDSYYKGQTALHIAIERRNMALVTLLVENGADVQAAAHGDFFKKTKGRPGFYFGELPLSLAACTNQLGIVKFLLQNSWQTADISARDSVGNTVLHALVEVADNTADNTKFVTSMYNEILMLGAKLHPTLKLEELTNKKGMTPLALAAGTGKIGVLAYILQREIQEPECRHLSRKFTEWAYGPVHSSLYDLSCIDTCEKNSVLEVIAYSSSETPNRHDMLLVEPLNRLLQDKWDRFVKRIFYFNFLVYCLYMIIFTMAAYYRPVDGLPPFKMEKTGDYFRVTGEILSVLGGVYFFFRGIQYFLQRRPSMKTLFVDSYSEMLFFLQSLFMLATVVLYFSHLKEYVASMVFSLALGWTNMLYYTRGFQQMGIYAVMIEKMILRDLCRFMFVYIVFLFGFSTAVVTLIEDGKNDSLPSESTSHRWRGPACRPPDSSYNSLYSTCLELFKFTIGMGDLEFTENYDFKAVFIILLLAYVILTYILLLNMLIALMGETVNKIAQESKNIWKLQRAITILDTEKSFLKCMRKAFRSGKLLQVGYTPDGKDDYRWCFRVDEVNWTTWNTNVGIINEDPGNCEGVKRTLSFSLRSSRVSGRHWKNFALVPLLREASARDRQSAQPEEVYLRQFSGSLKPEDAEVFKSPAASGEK

For orientation: Ki means the dissociation constant of the complex between target and ligand, obtained from inhibition or displacement. As to `CC(C(=O)NCc1cc(C(C)(C)C)nn1-c1cccc(Cl)c1)c1cccc2[nH]ccc12` (stereo not drawn) [Example 25, N-((3-tert-butyl-1-(3-chlorophenyl)-1H-pyrazol-5-yl)methyl)-2-(1H-indol-4-yl)propanamide], the Ki worked out at 5.5 nM.
For `CC(C(=O)NCc1cc(C(F)(F)F)nn1-c1cccc(Cl)c1)c1cccc2c1ccc[n+]2[O-]` (stereo not drawn) [Example 198, 5-(1-((1-(3-chlorophenyl)-3-(trifluoromethyl)-1H-pyrazol-5-yl)methylamino)-1-oxopropan-2-yl)quinolin 1-oxide], the “Ki (human being) [nM] Cap: agonist / partial agonist / no effect” value (shortened to “Ki … agonist / partial agonist / no effect”) is reported as “AG”.
In the case of `CC(C(=O)NCc1cc(C(C)(C)C)nn1-c1cccc(Cl)c1)c1cc(F)cc2[nH]ncc12` (stereo not drawn) [Example 193, N-((3-tert-butyl-1-(3-chlorophenyl)-1H-pyrazol-5-yl)methyl)-2-(6-fluoro-1H-indazol-4-yl)propanamide], the Ki came to 1.6 nM.
Turning to `Cc1cc2c(NC(=O)NCc3cc(C(F)(F)F)nn3-c3cccc(Cl)c3)cccc2[nH]1` [Example 192, 1-((1-(3-chlorophenyl)-3-(trifluoromethyl)-1H-pyrazol-5-yl)methyl)-3-(2-methyl-1H-indol-4-yl)urea], the Ki is 10.8 nM.
As to `Cc1cc2c(C(C)C(=O)NCc3cc(C(F)(F)F)nn3-c3cccc(Cl)c3)cccc2c(C)n1` (stereo not drawn) [Example 67, N-((1-(3-chlorophenyl)-3-(trifluoromethyl)-1H-pyrazol-5-yl)methyl)-2-(1,3-dimethylisoquinolin-5-yl)propanamide], the Ki was 5.2 nM.
Take `CC(C)(C)c1cc(CNC(=O)Nc2cccc3c2OCC3)n(-c2cccc(Cl)c2)n1` [Example 185, 1-((3-tert-butyl-1-(3-chlorophenyl)-1H-pyrazol-5-yl)methyl)-3-(2,3-dihydrobenzofuran-7-yl)urea]: the “Ki … agonist / partial agonist / no effect” value was “pAG” and the Ki is 39.7 nM.
On to `CC(C)(C)c1cc(CNC(=O)Cc2ccc3c(c2)OCCO3)n(-c2cccc(Cl)c2)n1` [Example 188, N-((3-tert-butyl-1-(3-chlorophenyl)-1H-pyrazol-5-yl)methyl)-2-(2,3-dihydrobenzo[b][1,4]dioxin-6-yl)acetamide], for which the Ki came out at 5.9 nM.
On to `CC(C)(C)c1cc(CNC(=O)Nc2ccc3c(c2)CCC3)n(-c2cccc(F)c2)n1` [Example 176, 1-((3-tert-butyl-1-(3-fluorophenyl)-1H-pyrazol-5-yl)methyl)-3-(2,3-dihydro-1H-inden-5-yl)urea], for which the Ki is 34 nM.
On to `O=C(NCc1cc(C(F)(F)F)nn1-c1cccc(Cl)c1)Nc1cccc2c(=O)[nH]ccc12` [Example 196, 1-((1-(3-chlorophenyl)-3-(trifluoromethyl)-1H-pyrazol-5-yl)methyl)-3-(1-oxo-1,2-dihydroisoquinolin-5-yl)urea], for which the “Ki … agonist / partial agonist / no effect” value is “AG”.
On to `CC(C(=O)NCc1cc(C(F)(F)F)nn1-c1cccc(Cl)c1)c1ccc2c(c1)C=CC(C)(C)O2` (stereo not drawn) [Example 190, N-((1-(3-chlorophenyl)-3-(trifluoromethyl)-1H-pyrazol-5-yl)methyl)-2-(2,2-dimethyl-2H-chromen-6-yl)propanamide], for which the Ki was found to be 30.4 nM.
Still for that read-out and setting: with `Cc1ccc(-n2nc(C(F)(F)F)cc2CNC(=O)Nc2ccc3c(c2)CCC3)cc1C` [Example 181, 1-(2,3-dihydro-1H-inden-5-yl)-3-((1-(3,4-dimethylphenyl)-3-(trifluoromethyl)-1H-pyrazol-5-yl)methyl)urea] the figure was 35.9 nM; with `CC(C(=O)NCc1cc(C(F)(F)F)nn1C1CCCCC1)c1ccc2c(c1)OCCO2` (stereo not drawn) [Example 184, N-((1-cyclohexyl-3-(trifluoromethyl)-1H-pyrazol-5-yl)methyl)-2-(2,3-dihydrobenzo[b][1,4]dioxin-6-yl)propanamide], 66.2 nM.
Regarding `CC(C(=O)NCc1cc(C(F)(F)F)nn1-c1cccc(Cl)c1)c1cccc2c(F)cccc12` (stereo not drawn) [Example 197, N-((1-(3-chlorophenyl)-3-(trifluoromethyl)-1H-pyrazol-5-yl)methyl)-2-(5-fluoronaphthalen-1-yl)propanamide], the Ki amounted to 5.8 nM.
On to `CC(C(=O)NCc1cc(C(F)(F)F)nn1-c1cccc(Cl)c1)c1cccc2c1ccn2C` (stereo not drawn) [Example 26, N-((1-(3-chlorophenyl)-3-(trifluoromethyl)-1H-pyrazol-5-yl)methyl)-2-(1-methyl-1H-indol-4-yl)propanamide], for which the Ki was 21.5 nM.
`CC(C(=O)NCc1cc(C(F)(F)F)nn1-c1cccc(Cl)c1)c1cccc2c1CCC2=O` (stereo not drawn) [Example 206, N-((1-(3-chlorophenyl)-3-(trifluoromethyl)-1H-pyrazol-5-yl)methyl)-2-(1-oxo-2,3-dihydro-1H-inden-4-yl)propanamide]: the “Ki … agonist / partial agonist / no effect” value is on record as “pAG” and the Ki amounted to 0.4 nM.
With `CC(C(=O)NCc1cc(C(F)(F)F)nn1-c1cccc(Cl)c1)c1ccc(F)c2[nH]ncc12` (stereo not drawn) [Example 195, N-((1-(3-chlorophenyl)-3-(trifluoromethyl)-1H-pyrazol-5-yl)methyl)-2-(7-fluoro-1H-indazol-4-yl)propanamide], the Ki was 6.8 nM.
Take `CC(C(=O)NCc1cc(C2CC2)nn1-c1cccc(Cl)c1)c1ccc2c(c1)OCO2` (stereo not drawn) [Example 183, 2-(benzo[d][1,3]dioxol-5-yl)-N-((1-(3-chlorophenyl)-3-cyclopropyl-1H-pyrazol-5-yl)methyl)propanamide]: the Ki was found to be 28.4 nM.
For `CC(C)(C)c1cc(CNC(=O)Nc2ccc3c(c2)CCC3)n(-c2ccc(F)c(Cl)c2)n1` [Example 177, 1-((3-tert-butyl-1-(3-chloro-4-fluorophenyl)-1H-pyrazol-5-yl)methyl)-3-(2,3-dihydro-1H-inden-5-yl)urea], the Ki amounted to 10.3 nM.
On to `CC(C(=O)NCc1cc(C(F)(F)F)nn1-c1cccc(Cl)c1)c1ccc2ncsc2c1` (stereo not drawn) [Example 42, 2-(benzo[d]thiazol-6-yl)-N-((1-(3-chlorophenyl)-3-(trifluoromethyl)-1H-pyrazol-5-yl)methyl)propanamide], for which the Ki is 4 nM.
`CC(C(=O)NCc1cc(C(F)(F)F)nn1-c1cccc(Cl)c1)c1ccc2c(c1)C(=O)CC2` (stereo not drawn) [Example 6, N-((1-(3-chlorophenyl)-3-(trifluoromethyl)-1H-pyrazol-5-yl)methyl)-2-(3-oxo-2,3-dihydro-1H-inden-5-yl)propanamide]: the Ki is 12.8 nM.
Still for that read-out and setting: with `O=C(NCc1cc(C(F)(F)F)nn1-c1cccc(Cl)c1)Nc1cc(F)cc2[nH]ncc12` [Example 194, 1-((1-(3-chlorophenyl)-3-(trifluoromethyl)-1H-pyrazol-5-yl)methyl)-3-(6-fluoro-1H-indazol-4-yl)urea] the figure was 8.4 nM.
As for `Cc1c(C(F)(F)F)nn(-c2cccc(Cl)c2)c1CNC(=O)C(C)c1ccc2c(c1)OCCO2` (stereo not drawn) [Example 200, N-((1-(3-chlorophenyl)-4-methyl-3-(trifluoromethyl)-1H-pyrazol-5-yl)methyl)-2-(2,3-dihydrobenzo[b][1,4]dioxin-6-yl)propanamide], the inhibition constant (Ki) was determined as 17.1 nM.
Turning to `CC(C(=O)NCc1cc(C(F)(F)F)nn1-c1cccc(Cl)c1)c1cccc2cn[nH]c12` (stereo not drawn) [Example 210, N-((1-(3-chlorophenyl)-3-(trifluoromethyl)-1H-pyrazol-5-yl)methyl)-2-(1H-indazol-7-yl)propanamide], the Ki was found to be 8.1 nM.
Regarding `CC(C(=O)NCc1cc(C(F)(F)F)nn1-c1cccc(Cl)c1)c1cccc2c1CCCC2` (stereo not drawn) [Example 2, N-((1-(3-chlorophenyl)-3-(trifluoromethyl)-1H-pyrazol-5-yl)methyl)-2-(5,6,7,8-tetrahydronaphthalen-1-yl)propanamide], the Ki was found to be 6.6 nM.
In the case of `COc1ccc(-n2nc(C(F)(F)F)cc2CNC(=O)Nc2ccc3c(c2)CCC3)cc1` [Example 178, 1-(2,3-dihydro-1H-inden-5-yl)-3-((1-(4-methoxyphenyl)-3-(trifluoromethyl)-1H-pyrazol-5-yl)methyl)urea], the Ki was determined as 38.4 nM.
